Test results reported in patent US20100240682A1, “PHOPHYLACTIC OR THERAPEUTIC AGENT FOR INFLAMATORY DISEASE COMPRISING THYMIDINE PHOSPHORYLASE INHIBITOR AS ACTIVE INGREDIENT” (TAIHO PHARMACEUTICAL CO., LTD., priority 2007, published 2010).

Assays:
[1] = test system: concanavalin-A-induced hepatitis model mice; assay: Concanavalin-A-induced hepatitis model, serum AST and ALT; type: in vivo, mouse; settings: TPI 100 mg/kg oral, 30 min before concanavalin A i.v., 24 h after
Procedure: TPI (100 mg/kg) was orally single-administered to […] in which hepatitis had been induced by concanavalin A (i.e., a hepatitis model), and the inhibitory effect of TPI on hepatitis was evaluated. Specifically, 6-week-old female C57BL/6NCrlCrlj mice (Charles River Laboratories Japan Inc.) were employed. To the TPI administration group, TPI (100 mg/kg) was orally administered, and after 30 minutes 2 mg/mL concanavalin A (150 μL/animal) was intravenously administered through the tail vein. To the control group, only a vehicle was orally administered instead of TPI. […] The serum ALT level (IU/L) and AST level (IU/L) were determined as index for liver disorders.

collagen arthritis mice = assay: Collagen arthritis model mouse, arthritis score; type: in vivo; settings: 500 mg/kg orally once a day; 11 to 14 days after second immunization
Procedure: TPI (250 or 500 mg/kg) was orally administered to collagen arthritis mice (i.e., rheumatic model) continuously for 14 days, and the effect of TPI on edema of the limbs of each mouse was evaluated. Arthritis was induced in […] mice by type II collagen induction, and the mice were employed as a rheumatoid arthritis model. Specifically, type II collagen derived from bovine joint (K42, product of Collagen Gijyutsu Kensyukai) (200 μg) was suspended in Freund's complete adjuvant (DIFCO) (100 μL), and on day 1, the suspension was intradermally administered to the back of 8-week-old mice (DBA/1JN mice, Charles River Laboratories Japan Inc.). On day 21, type II collagen derived from bovine joint (K42) (200 μg) suspended in Freund's complete adjuvant (100 μL) was intradermally administered to the tail portion of each mice, to thereby induce an arthritis model. To the TPI administration groups, TPI (250 or 500 mg/kg/day) was orally administered continuously once a day during a period from day 21 to day 40. To the control, a solvent (0.5% aqueous HPMC) was administered instead of TPI according to the same administration schedule as employed in the TPI administration groups. […] The arthritis condition was evaluated on day 42; i.e., the day following the final administration day. […]

[2] = test system: rats having hydrochloric-acid-induced cystitis; assay: Hydrochloric-acid-induced cystitis model rat, bladder functions by cystometry; type: in vivo; settings: TPI 5, 50 or 100 mg/kg orally once a day for seven days; vs control group
Procedure: To rats having hydrochloric-acid-induced cystitis serving as a cystitis model, 5-chloro-6-(2-iminopyrrolidin-1-yl)methyl-2,4(1H,3H)-pyrimidinedione hydrochloride (hereinafter abbreviated as “TPI”) (5, 50, or 100 mg/kg) was orally administered continuously for seven days, and the effect of TPI on bladder functions was evaluated. Specifically, 10-week-old SD rats were divided into groups (n=6) on the basis of body weight. To each of the rats of the control group and TPI administration groups, 0.4N HCl (0.2 mL) was intravesically administered once to the bladder under pentobarbital anesthesia (50 mg/kg, i.p.), to thereby induce a cystitis model. To a Sham group, saline (0.2 mL) was intravesically administered. From the day following the induction of cystitis model, distilled water for injection (5 mL/kg) was administered to the Sham and control groups, while distilled water for injection (5 mL/kg) containing TPI (5, 50, or 100 mg/kg) was administered to the TPI administration groups. In each case, the liquid was administered by forced oral administration once a day continuously for seven days. On the day following the final administration day, bladder functions (urination intervals and single urination output) of the rats of each group were evaluated through cystometry under anesthesia in accordance with a method described in BJU Int. 2007 October; 100(4): 935-9.

[3] = test system: IL-6 production in human monocytes cell line U937; assay: IL-6 production by PMA/thymidine-stimulated U937 cells; type: cell-based; settings: U937 after 10 ng/mL PMA and 10 μmol/L thymidine; 48 h after drug addition; vs control group
Procedure: Human monocytes cell line U937 were cultured using a 10% FBS RPMI 1640 medium (SIGMA-ALDRICH) at 37° C. under 5% CO2. Using a 24-well plate, U937 cells (1×10^5) were cultured for 24 hours in a medium containing 10 ng/mL phorbol-12-myristate-13-acetate (inflammatory substance, hereinafter abbreviated to as PMA) and 10 μmol/L thymidine in order for induction of inflammatory reaction. Twenty-four hours later, the medium was changed to fresh medium. To the drug administration group, TUPI or TPI was added. Forty-eight hours after the addition, the IL-6 level of each culture supernatant was determined by means of BioPlex (Bio-Rad Laboratories, Inc.).

[4] = test system: rats in which ulcer had been induced by hydrochloric acid; assay: Hydrochloric-acid-induced acute gastritis model rat, gastric mucosal damage (lesion length); type: in vivo; settings: control 120.4±8.5 mm
Procedure: TPI (100 or 200 mg/kg) was orally single-administered to rats in which ulcer had been induced by hydrochloric acid (i.e., an acute gastritis model), and the preventive effect of TPI on mucosal damage was evaluated. Specifically, 7-week-old female SD rats (Charles River Laboratories Japan Inc.) were fasted for about 18 hours. To the TPI administration groups, TPI (100 or 200 mg/kg) was orally administered, and after 30 minutes 0.6N HCl (5 mL/kg) was orally administered. To the control group, only 0.6N HCl (5 mL/kg) was orally administered. One hour after administration of hydrochloric acid, rats were euthanized through, and the stomach was removed from each rat. The tissue thereof was fixed with 1% formaline buffer, and the stomach was cut through the greater curvature. The longer diameter (mm) of a lesion was measured by means of an electronic caliper, and the total of the diameters was employed as an index for evaluating gastric mucosal damage.

[5] = test system: rats having hydrochloric-acid-induced cystitis; assay: Hydrochloric-acid-induced rat interstitial cystitis model, histological changes of the bladder (HE staining); type: in vivo
Procedure: To rats having hydrochloric-acid-induced cystitis serving as an interstitial cystitis model, TPI (50 or 500 mg/kg) was orally administered continuously for seven days, and the effect of TPI on pathological histological improvement of the bladder tissue was evaluated. Specifically, 10-week-old SD rats were divided into groups (n=6) on the basis of body weight. To each of the rats of a control group and TPI administration groups, 0.4N HCl (0.2 mL) was intravesically administered once to the bladder under pentobarbital anesthesia (50 mg/kg, i.p.), to thereby induce a cystitis model. To a Sham group, saline (0.2 mL) was intravesically administered. From the day following the induction of cystitis model, distilled water for injection (5 mL/kg) was administered to the Sham and control groups, while distilled water for injection (5 mL/kg) containing TPI (50 or 500 mg/kg) was administered to the TPI administration groups. In each case, the liquid was orally administered continuously once a day for seven days. On the day following the final administration day, the bladder was removed from each of the rats under ether anesthesia and washed with saline. Subsequently, the washed bladder was fixed with 20% buffered formalin and 10% buffered formalin, followed by HE staining. Histological changes of the bladder were observed. […]

Cl.N=C1CCCN1Cc1[nH]c(=O)[nH]c(=O)c1Cl [TPI, 5-chloro-6-(2-iminopyrrolidin-1-yl)methyl-2,4(1H,3H)-pyrimidinedione hydrochloride]
serum AST level ([1]; control 4,506±864): 1,540±477 IU/L
serum ALT level ([1]; control 6,130±800): 2,538±755 IU/L
arthritis scores (collagen arthritis mice): significant suppression
bladder functions (urination interval, single urination output, effective vesical capacity, residual urine) [2]: improved in response to the administration amount
IL-6 level of culture supernatant [3]: more significant suppression
gastric mucosal damage (total of longer diameters of lesions) ([4]; TPI 100 mg/kg oral single dose 30 min before 0.6N HCl, significantly reduced): 63.0±14.3 mm
gastric mucosal damage (total of longer diameters of lesions) ([4]; TPI 200 mg/kg oral single dose 30 min before 0.6N HCl): 76.1±18.3 mm
Entire bladder: Thickening/proliferation of transitional epithelium, number of samples ([5]; TAS-111 (50), grade +): 1
Lamina propria: Edema, number of samples ([5]; TAS-111 (50), grade +): 0
Lamina propria: Infiltration of mast cells/eosinocytes, number of samples ([5]; TAS-111 (50), grade +): 1
Tunica muscularis: Edema, number of samples ([5]; TAS-111 (50), grade +): 2
Tunica muscularis: Infiltration of mast cells/eosinocytes, number of samples ([5]; TAS-111 (50), grade +): 2
Entire bladder: Thickening/proliferation of transitional epithelium, number of samples ([5]; TAS-111 (50), grade ++): 2
Lamina propria: Edema, number of samples ([5]; TAS-111 (50), grade ++): 2
Lamina propria: Infiltration of mast cells/eosinocytes, number of samples ([5]; TAS-111 (50), grade ++): 2
Tunica muscularis: Edema, number of samples ([5]; TAS-111 (50), grade ++): 0
Tunica muscularis: Infiltration of mast cells/eosinocytes, number of samples ([5]; TAS-111 (50), grade ++): 0
Entire bladder: Thickening/proliferation of transitional epithelium, number of samples ([5]; TAS-111 (50), grade +++): 0
Lamina propria: Edema, number of samples ([5]; TAS-111 (50), grade +++): 0
Lamina propria: Infiltration of mast cells/eosinocytes, number of samples ([5]; TAS-111 (50), grade +++): 0
Tunica muscularis: Edema, number of samples ([5]; TAS-111 (50), grade +++): 0
Tunica muscularis: Infiltration of mast cells/eosinocytes, number of samples ([5]; TAS-111 (50), grade +++): 0
Entire bladder: Thickening/proliferation of transitional epithelium, number of samples ([5]; TAS-111 (500), grade +): 1
Lamina propria: Edema, number of samples ([5]; TAS-111 (500), grade +): 0
Lamina propria: Infiltration of mast cells/eosinocytes, number of samples ([5]; TAS-111 (500), grade +): 2
Tunica muscularis: Edema, number of samples ([5]; TAS-111 (500), grade +): 0
Tunica muscularis: Infiltration of mast cells/eosinocytes, number of samples ([5]; TAS-111 (500), grade +): 0
Entire bladder: Thickening/proliferation of transitional epithelium, number of samples ([5]; TAS-111 (500), grade ++): 0
Lamina propria: Edema, number of samples ([5]; TAS-111 (500), grade ++): 1
Lamina propria: Infiltration of mast cells/eosinocytes, number of samples ([5]; TAS-111 (500), grade ++): 0
Tunica muscularis: Edema, number of samples ([5]; TAS-111 (500), grade ++): 0
Tunica muscularis: Infiltration of mast cells/eosinocytes, number of samples ([5]; TAS-111 (500), grade ++): 0
Entire bladder: Thickening/proliferation of transitional epithelium, number of samples ([5]; TAS-111 (500), grade +++): 0
Lamina propria: Edema, number of samples ([5]; TAS-111 (500), grade +++): 0
Lamina propria: Infiltration of mast cells/eosinocytes, number of samples ([5]; TAS-111 (500), grade +++): 0
Tunica muscularis: Edema, number of samples ([5]; TAS-111 (500), grade +++): 0
Tunica muscularis: Infiltration of mast cells/eosinocytes, number of samples ([5]; TAS-111 (500), grade +++): 0

Nc1[nH]c(=O)[nH]c(=O)c1Cl [TUPI, 5-chloro-6-aminouracil, reference compound]
IL-6 level of culture supernatant [3]: more significant suppression
